Laboratory results from publication PMC10408569, “Recruitment of hexahydroquinoline as anticancer scaffold targeting inhibition of wild and mutants EGFR (EGFR^WT, EGFR^T790M, and EGFR^L858R)” (Journal of Enzyme Inhibition and Medicinal Chemistry, 2023).

Experiments:
CCRF-CEM = assay: NCI-60 anticancer screening (SRB); assay type: cell-based; conditions: Homo sapiens, leukemia, one dose 10 μM, read-out: Growth Inhibition Percentage (GI %)
HL-60(TB) = assay: NCI-60 anticancer screening (SRB); assay type: cell-based; conditions: Homo sapiens, leukemia, one dose 10 μM, read-out: Growth Inhibition Percentage (GI %)
K-562 = assay: NCI-60 anticancer screening (SRB); assay type: cell-based; conditions: Homo sapiens, K562; K-562, leukemia; one dose 10 μM; read-out: Growth Inhibition Percentage (GI %)
SR = assay: NCI-60 anticancer screening (SRB); assay type: cell-based; conditions: Homo sapiens, leukemia, one dose 10 μM, read-out: Growth Inhibition Percentage (GI %)
NCI-H226 = assay: NCI-60 anticancer screening (SRB); assay type: cell-based; conditions: Homo sapiens; NCI-H226, NSC lung cancer; one dose 10 μM; read-out: Growth Inhibition Percentage (GI %)
NCI-H322M = assay: NCI-60 anticancer screening (SRB); assay type: cell-based; conditions: Homo sapiens, NSC lung cancer, one dose 10 μM, read-out: Growth Inhibition Percentage (GI %)
COLO 205 = assay: NCI-60 anticancer screening (SRB); assay type: cell-based; conditions: Homo sapiens; COLO 205, colon cancer; one dose 10 μM; read-out: Growth Inhibition Percentage (GI %)
HCT-116 = assay: NCI-60 anticancer screening (SRB); assay type: cell-based; conditions: Homo sapiens; HCT-116, colon cancer; one dose 10 μM; read-out: Growth Inhibition Percentage (GI %)
HCT-15 = assay: NCI-60 anticancer screening (SRB); assay type: cell-based; conditions: Homo sapiens; HCT-15, colon cancer; one dose 10 μM; read-out: Growth Inhibition Percentage (GI %)
KM 12 = assay: NCI-60 anticancer screening (SRB); assay type: cell-based; conditions: Homo sapiens, KM12; KM 12, colon cancer; one dose 10 μM; read-out: Growth Inhibition Percentage (GI %)
SW-620 = assay: NCI-60 anticancer screening (SRB); assay type: cell-based; conditions: Homo sapiens; SW-620, colon cancer; one dose 10 μM; read-out: Growth Inhibition Percentage (GI %)
SF-268 = assay: NCI-60 anticancer screening (SRB); assay type: cell-based; conditions: Homo sapiens; SF-268, CNS cancer; one dose 10 μM; read-out: Growth Inhibition Percentage (GI %)
SNB-75 = assay: NCI-60 anticancer screening (SRB); assay type: cell-based; conditions: Homo sapiens; SNB-75, CNS cancer; one dose 10 μM; read-out: Growth Inhibition Percentage (GI %)
U251 = assay: NCI-60 anticancer screening (SRB); assay type: cell-based; conditions: Homo sapiens, U-251; U251, CNS cancer; one dose 10 μM; read-out: Growth Inhibition Percentage (GI %)
LOX IMVI = assay: NCI-60 anticancer screening (SRB); assay type: cell-based; conditions: Homo sapiens, melanoma, one dose 10 μM, read-out: Growth Inhibition Percentage (GI %)
M14 = assay: NCI-60 anticancer screening (SRB); assay type: cell-based; conditions: Homo sapiens; M14, melanoma; one dose 10 μM; read-out: Growth Inhibition Percentage (GI %)
SK-MEL-2 = assay: NCI-60 anticancer screening (SRB); assay type: cell-based; conditions: Homo sapiens; SK-MEL-2, melanoma; one dose 10 μM; read-out: Growth Inhibition Percentage (GI %)
UACC-257 = assay: NCI-60 anticancer screening (SRB); assay type: cell-based; conditions: Homo sapiens; UACC-257, melanoma; one dose 10 μM; read-out: Growth Inhibition Percentage (GI %)
IGROV1 = assay: NCI-60 anticancer screening (SRB); assay type: cell-based; conditions: Homo sapiens, IGROV-1; IGROV1, ovarian cancer; one dose 10 μM; read-out: Growth Inhibition Percentage (GI %)
OVCAR-5 = assay: NCI-60 anticancer screening (SRB); assay type: cell-based; conditions: Homo sapiens; OVCAR-5, ovarian cancer; one dose 10 μM; read-out: Growth Inhibition Percentage (GI %)
NCI/ADR-RES = assay: NCI-60 anticancer screening (SRB); assay type: cell-based; conditions: Homo sapiens, ovarian cancer, one dose 10 μM, read-out: Growth Inhibition Percentage (GI %)
SK-OV-3 = assay: NCI-60 anticancer screening (SRB); assay type: cell-based; conditions: Homo sapiens; SK-OV-3, ovarian cancer; one dose 10 μM; read-out: Growth Inhibition Percentage (GI %)
786-0 = assay: NCI-60 anticancer screening (SRB); assay type: cell-based; conditions: Homo sapiens; 786-0, renal cancer; one dose 10 μM; read-out: Growth Inhibition Percentage (GI %)
A498 = assay: NCI-60 anticancer screening (SRB); assay type: cell-based; conditions: Homo sapiens; A498, renal cancer; one dose 10 μM; read-out: Growth Inhibition Percentage (GI %)
RXF 393 = assay: NCI-60 anticancer screening (SRB); assay type: cell-based; conditions: Homo sapiens; RXF 393, renal cancer; one dose 10 μM; read-out: Growth Inhibition Percentage (GI %)
TK-10 = assay: NCI-60 anticancer screening (SRB); assay type: cell-based; conditions: Homo sapiens; TK-10, renal cancer; one dose 10 μM; read-out: Growth Inhibition Percentage (GI %)
PC-3 = assay: NCI-60 anticancer screening (SRB); assay type: cell-based; conditions: Homo sapiens; PC-3, prostate cancer; one dose 10 μM; read-out: Growth Inhibition Percentage (GI %)
MCF7 = assay: NCI-60 anticancer screening (SRB); assay type: cell-based; conditions: Homo sapiens; MCF7, breast cancer; one dose 10 μM; read-out: Growth Inhibition Percentage (GI %)
MDA-MB-231 = assay: NCI-60 anticancer screening (SRB); assay type: cell-based; conditions: Homo sapiens; MDA-MB-231, breast cancer; one dose 10 μM; read-out: Growth Inhibition Percentage (GI %)
BT-549 = assay: NCI-60 anticancer screening (SRB); assay type: cell-based; conditions: Homo sapiens; BT-549, breast cancer; one dose 10 μM; read-out: Growth Inhibition Percentage (GI %)
T-47D = assay: NCI-60 anticancer screening (SRB); assay type: cell-based; conditions: Homo sapiens, T47D, breast cancer, one dose 10 μM, read-out: Growth Inhibition Percentage (GI %)
MDA-MB-468 = assay: NCI-60 anticancer screening (SRB); assay type: cell-based; conditions: Homo sapiens; MDA-MB-468, breast cancer; one dose 10 μM; read-out: Growth Inhibition Percentage (GI %)
NCI 60 cancer cell lines = assay: NCI-60 anticancer screening (SRB), whole panel; assay type: cell-based, human; conditions: mean across the NCI-60 panel; one dose 10 μM

CCOC(=O)C1=C(N)N(c2ccccc2)C2=C(C(=O)CC(C)(C)C2)C1c1ccccc1Cl (racemic) [6a, (±)-Ethyl 2-amino-4–(2-chlorophenyl)-7,7-dimethyl-5-oxo-1-phenyl-1,4,5,6,7,8-hexahydroquinoline-3-carboxylate]
inhibition at 10 µM (CCRF-CEM): 52%
inhibition at 10 µM (HL-60(TB)): 123%
inhibition at 10 µM (K-562): 59%
inhibition at 10 µM (SR): 68%
inhibition at 10 µM (NCI-H226): 24%
inhibition at 10 µM (NCI-H322M): 18%
inhibition at 10 µM (COLO 205): 35%
inhibition at 10 µM (HCT-116): 59%
inhibition at 10 µM (HCT-15): 51%
inhibition at 10 µM (KM 12): 42%
inhibition at 10 µM (SW-620): 26%
inhibition at 10 µM (SF-268): 20%
inhibition at 10 µM (SNB-75): 34%
inhibition at 10 µM (U251): 21%
inhibition at 10 µM (LOX IMVI): 15%
inhibition at 10 µM (M14): 50%
inhibition at 10 µM (SK-MEL-2): 43%
inhibition at 10 µM (UACC-257): 28%
inhibition at 10 µM (IGROV1): < 10%
inhibition at 10 µM (OVCAR-5): 14%
inhibition at 10 µM (NCI/ADR-RES): 27%
inhibition at 10 µM (SK-OV-3): < 10%
inhibition at 10 µM (786-0): 21%
inhibition at 10 µM (A498): < 10%
inhibition at 10 µM (RXF 393): 22%
inhibition at 10 µM (TK-10): < 10%
inhibition at 10 µM (PC-3): 71%
inhibition at 10 µM (MCF7): 44%
inhibition at 10 µM (MDA-MB-231): 16%
inhibition at 10 µM (BT-549): 22%
inhibition at 10 µM (T-47D): 48%
inhibition at 10 µM (MDA-MB-468): 50%
GI % mean (NCI 60 cancer cell lines): 33%

CCOC(=O)C1=C(N)N(c2ccc(Cl)cc2)C2=C(C(=O)CC(C)(C)C2)C1c1ccccc1Cl (racemic) [6c, (±)-Ethyl 2-amino-4–(2-chlorophenyl)-1–(4-chlorophenyl)-7,7-dimethyl-5-oxo-1,4,5,6,7,8-hexahydroquinoline-3-carboxylate]
inhibition at 10 µM (CCRF-CEM): 40%
inhibition at 10 µM (HL-60(TB)): 75%
inhibition at 10 µM (K-562): < 10%
inhibition at 10 µM (SR): < 10%
inhibition at 10 µM (NCI-H226): 25%
inhibition at 10 µM (NCI-H322M): < 10%
inhibition at 10 µM (COLO 205): 62%
inhibition at 10 µM (HCT-116): 66%
inhibition at 10 µM (HCT-15): 62%
inhibition at 10 µM (KM 12): 44%
inhibition at 10 µM (SW-620): 48%
inhibition at 10 µM (SF-268): 23%
inhibition at 10 µM (SNB-75): 17%
inhibition at 10 µM (U251): 54%
inhibition at 10 µM (LOX IMVI): 18%
inhibition at 10 µM (M14): 28%
inhibition at 10 µM (SK-MEL-2): 24%
inhibition at 10 µM (UACC-257): 50%
inhibition at 10 µM (IGROV1): < 10%
inhibition at 10 µM (OVCAR-5): < 10%
inhibition at 10 µM (NCI/ADR-RES): 24%
inhibition at 10 µM (SK-OV-3): 29%
inhibition at 10 µM (786-0): 15%
inhibition at 10 µM (A498): < 10%
inhibition at 10 µM (RXF 393): < 10%
inhibition at 10 µM (TK-10): 43%
inhibition at 10 µM (PC-3): 76%
inhibition at 10 µM (MCF7): 58%
inhibition at 10 µM (MDA-MB-231): 24%
inhibition at 10 µM (BT-549): 40%
inhibition at 10 µM (T-47D): 67%
inhibition at 10 µM (MDA-MB-468): 60%
GI % mean (NCI 60 cancer cell lines): 34%

CCOC(=O)C1=C(N)N(c2ccccc2)C2=C(C(=O)CC(C)(C)C2)C1c1ccc([N+](=O)[O-])cc1 (racemic) [8i, (±)-Ethyl 2-amino-4–(4-nitrophenyl)-7,7-dimethyl-5-oxo-1-phenyl-1,4,5,6,7,8-hexahydroquinoline-3-carboxylate]
inhibition at 10 µM (CCRF-CEM): 11%
inhibition at 10 µM (HL-60(TB)): < 10%
inhibition at 10 µM (K-562): 16%
inhibition at 10 µM (SR): 34%
inhibition at 10 µM (NCI-H226): 12%
inhibition at 10 µM (NCI-H322M): < 10%
inhibition at 10 µM (COLO 205): < 10%
inhibition at 10 µM (HCT-116): 16%
inhibition at 10 µM (HCT-15): 14%
inhibition at 10 µM (KM 12): < 10%
inhibition at 10 µM (SW-620): < 10%
inhibition at 10 µM (SF-268): < 10%
inhibition at 10 µM (SNB-75): < 10%
inhibition at 10 µM (U251): < 10%
inhibition at 10 µM (LOX IMVI): 11%
inhibition at 10 µM (M14): < 10%
inhibition at 10 µM (SK-MEL-2): < 10%
inhibition at 10 µM (UACC-257): < 10%
inhibition at 10 µM (IGROV1): < 10%
inhibition at 10 µM (OVCAR-5): < 10%
inhibition at 10 µM (NCI/ADR-RES): < 10%
inhibition at 10 µM (786-0): < 10%
inhibition at 10 µM (A498): < 10%
inhibition at 10 µM (RXF 393): < 10%
inhibition at 10 µM (TK-10): < 10%
inhibition at 10 µM (PC-3): 32%
inhibition at 10 µM (MCF7): 16%
inhibition at 10 µM (MDA-MB-231): < 10%
inhibition at 10 µM (BT-549): < 10%
inhibition at 10 µM (T-47D): < 10%
inhibition at 10 µM (MDA-MB-468): < 10%
GI % mean (NCI 60 cancer cell lines): - ((-) = GI % mean less than 10)
